Test results from patent US11597724B2, “Herbicidally active 3-phenylisoxazoline-5-carboxamides of tetrahydro and dihydrofuran carboxylic acids and esters” (Bayer Aktiengesellschaft, priority 2017, dated 2023).

Legend:
Assay type in all cases: in vivo
[1] = system: Avena fatua; experiment: Pre-emergence herbicidal activity against AVEFA; conditions: Avena fatua, 504 h, dosage 80 g/ha, read-out: Pre-emergence herbicidal activity against AVEVA in % (AVEFA)
Description: 1. Pre-Emergence Herbicidal Action and Crop Plant Compatibility Seeds of monocotyledonous and dicotyledonous weed plants and crop plants are placed in plastic or wood fiber pots and covered with soil. The compounds of the invention, formulated in the form of wettable powders (WP) or as emulsion concentrates (EC), are then applied onto the surface of the covering soil as aqueous suspension or emulsion with addition of 0.5% additive at a water application rate of 600 l/ha (converted). After the treatment, the pots are placed in a greenhouse and kept under good growth conditions for the trial plants. After about 3 weeks, the effect of the preparations is scored visually in comparison with untreated controls as percentages. For example, 100% activity=the plants have died, 0% activity=like control plants. AMARE: Amaranthus retroflexus AVEFA: Avena fatua

[2] = system: Echinochloa crus-galli; experiment: Post-emergence herbicidal activity against ECHCG; conditions: Echinochloa crus-galli, 504 h, dosage 320 g/ha, rated about 3 weeks after treatment
Method in brief: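 Greenhouse pot plants sprayed post-emergence at one-leaf stage (2-3 weeks after sowing) with WP or EC formulations, 0.5% additive, 600 l/ha water. Visual rating about 3 weeks later versus untreated controls: 100% = plants dead, 0% = like control.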

[3] = system: Setaria viridis; experiment: Post-emergence herbicidal activity against SETVI; conditions: Setaria viridis, 504 h, dosage 320 g/ha, rated about 3 weeks after treatment
Method in brief: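 Greenhouse weeds in sandy loam were sprayed at the one-leaf stage, 2–3 weeks after sowing, with WP or EC formulations plus 0.5% additive at 600 l/ha water. About 3 weeks later, damage was rated visually against untreated controls, where 100% means plants dead and 0% means like control.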

[4] = system: Pharbitis purpurea; experiment: Post-emergence herbicidal activity against PHBPU; conditions: Ipomoea purpurea, 504 h, dosage 320 g/ha, rated about 3 weeks after treatment
Method in brief: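 Greenhouse-grown plants sprayed post-emergence at the one-leaf stage, 2 to 3 weeks after sowing, with WP or EC formulations plus 0.5% additive at 600 l/ha water. Activity rated visually after about 3 weeks versus untreated controls (100% = plants dead, 0% = like control).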

[5] = system: Stellaria media; experiment: Post-emergence herbicidal activity against STEME; conditions: Stellaria media, 504 h, dosage 320 g/ha, rated about 3 weeks after treatment
Method in brief: (§1)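 Greenhouse plants treated at one-leaf stage, 2–3 weeks after sowing, by spraying WP or EC formulations with 0.5% additive at 600 l/ha water. Visual rating about 3 weeks later versus untreated controls (100% = plants dead, 0% = like controls).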

[6] = system: Veronica persica; experiment: Post-emergence herbicidal activity against VERPE; conditions: Veronica persica, 504 h, dosage 320 g/ha
Method in brief: as §1

[7] = Post-emergence treatment, summary over harmful plants; conditions: 504 h, application rate of 0.32 kg of active substance or less per hectare, read-out: herbicidal action, post-emergence treatment (very good herbicidal activity)
Method in brief: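 Greenhouse-grown weeds and crops were sprayed at the one-leaf stage (2–3 weeks post-sowing) with WP or EC formulations plus 0.5% additive at 600 l/ha water. About 3 weeks later, activity was visually rated against untreated controls (100% = dead plants, 0% = like control).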

Question: With `COC(=O)[C@H]1C[C@@H](NC(=O)[C@@]2(C)CC(c3cc(F)cc(F)c3)=NO2)CO1` (mixture of isomers) [I-09, methyl cis-4-[[(5R)-3-(3,5-difluorophenyl)-5-methyl-4H-isoxazole-5-carbonyl]amino]tetrahydrofuran-2-carboxylate] as the compound, how does the pest or weed control at 80 g/ha [1] read?
Answer: 90%

Question: What about the pest or weed control at 320 g/ha [2] of the same compound?
Answer: 80%

Question: What about the pest or weed control at 320 g/ha [3] of the same compound?
Answer: 80%

Question: What about the pest or weed control at 320 g/ha [4] of the same compound?
Answer: 90%

Question: What about the pest or weed control at 320 g/ha [5] of the same compound?
Answer: 90%

Question: What about the pest or weed control at 320 g/ha [6] of the same compound?
Answer: 80%

Question: And the pest or weed control at 320 g/ha [7]?
Answer: 80 to 100%

Question: What does the source list for `COC(=O)[C@H]1C[C@@H](NC(=O)C2(C)CC(c3cc(F)cc(F)c3)=NO2)CO1` (relative stereo) [I-01, methyl cis-4-[[3-(3,5-difluorophenyl)-5-methyl-4H-isoxazole-5-carbonyl]amino]tetrahydrofuran-2-carboxylate]?
Answer: pest or weed control at 80 g/ha [1]: 90%; pest or weed control at 320 g/ha [2]: 90%; pest or weed control at 320 g/ha [3]: 90%; pest or weed control at 320 g/ha [4]: 90%; pest or weed control at 320 g/ha [5]: 90%; pest or weed control at 320 g/ha [6]: 80%; pest or weed control at 320 g/ha [7]: 80 to 100%

Question: Which pest or weed control at 80 g/ha [1] does the source give for `COC(=O)[C@H]1C[C@@H](NC(=O)C2(C(F)(F)F)CC(c3cc(F)cc(F)c3)=NO2)CO1` (relative stereo) [I-06, methyl cis-4-[[3-(3,5-difluorophenyl)-5-(trifluoromethyl)-4H-isoxazole-5-carbonyl]amino]tetrahydrofuran-2-carboxylate] here?
Answer: 90%

Question: And the pest or weed control at 320 g/ha [2]?
Answer: 90%

Question: What about the pest or weed control at 320 g/ha [3] of the same compound?
Answer: 80%

Question: And the pest or weed control at 320 g/ha [4]?
Answer: 90%

Question: What about the pest or weed control at 320 g/ha [5] of the same compound?
Answer: 80%

Question: And the pest or weed control at 320 g/ha [6]?
Answer: 80%

Question: What about the pest or weed control at 320 g/ha [7] of the same compound?
Answer: 80 to 100%

Question: For `C=CC1(C(=O)N[C@H]2CO[C@@H](C(=O)O)C2)CC(c2cc(F)cc(F)c2)=NO1` (relative stereo) [I-21, cis-4-[[3-(3,5-difluorophenyl)-5-vinyl-4H-isoxazole-5-carbonyl]amino]tetrahydrofuran-2-carboxylic acid], which pest or weed control at 80 g/ha [1] is on record?
Answer: 90%

Question: And the pest or weed control at 320 g/ha [2]?
Answer: 80%

Question: What about the pest or weed control at 320 g/ha [3] of the same compound?
Answer: 80%

Question: And the pest or weed control at 320 g/ha [4]?
Answer: 80%

Question: And the pest or weed control at 320 g/ha [5]?
Answer: 80%

Question: And the pest or weed control at 320 g/ha [6]?
Answer: 100%

Question: And the pest or weed control at 320 g/ha [7]?
Answer: 80 to 100%

Question: With `COC(=O)C1COCC1NC(=O)C1(C)CC(c2cc(F)cc(F)c2)=NO1` (stereo not shown) [I-19, methyl 4-[[3-(3,5-difluorophenyl)-5-methyl-4H-isoxazole-5-carbonyl]amino]tetrahydrofuran-3-carboxylate] as the compound, how does the pest or weed control at 80 g/ha [1] read?
Answer: 80%

Question: What about the pest or weed control at 320 g/ha [2] of the same compound?
Answer: 90%

Question: What about the pest or weed control at 320 g/ha [3] of the same compound?
Answer: 80%

Question: What about the pest or weed control at 320 g/ha [4] of the same compound?
Answer: 80%

Question: And the pest or weed control at 320 g/ha [5]?
Answer: 90%

Question: What about the pest or weed control at 320 g/ha [6] of the same compound?
Answer: 80%

Question: What about the pest or weed control at 320 g/ha [7] of the same compound?
Answer: 80 to 100%

Question: What does the source list for `C=C[C@]1(C(=O)NC2COCC2C(=O)OC)CC(c2cc(F)cc(F)c2)=NO1` (stereo partly drawn) [I-26, methyl 4-[[(5S)-3-(3,5-difluorophenyl)-5-vinyl-4H-isoxazole-5-carbonyl]amino]tetrahydrofuran-3-carboxylate]?
Answer: pest or weed control at 80 g/ha [1]: 90%; pest or weed control at 320 g/ha [2]: 90%; pest or weed control at 320 g/ha [3]: 80%; pest or weed control at 320 g/ha [4]: 80%; pest or weed control at 320 g/ha [5]: 90%; pest or weed control at 320 g/ha [6]: 90%; pest or weed control at 320 g/ha [7]: 80 to 100%

Question: Which pest or weed control at 80 g/ha [1] does the source give for `COC(=O)C1COCC1NC(=O)[C@@]1(C)CC(c2cc(F)cc(F)c2)=NO1` (stereo partly drawn) [I-28, methyl 4-[[(5R)-3-(3,5-difluorophenyl)-5-methyl-4H-isoxazole-5-carbonyl]amino]tetrahydrofuran-3-carboxylate] here?
Answer: 100%

Question: What about the pest or weed control at 320 g/ha [2] of the same compound?
Answer: 80%

Question: And the pest or weed control at 320 g/ha [3]?
Answer: 80%

Question: What about the pest or weed control at 320 g/ha [4] of the same compound?
Answer: 80%

Question: What about the pest or weed control at 320 g/ha [5] of the same compound?
Answer: 80%

Question: And the pest or weed control at 320 g/ha [6]?
Answer: 90%

Question: What about the pest or weed control at 320 g/ha [7] of the same compound?
Answer: 80 to 100%
